Among the test systems are OVCAR-3 ovarian; HCT-116 colon; HOP-92 NSCLC; NCI-H522 lung; SW-620 colon; SF-268 CNS; COLO 205 colon; MOLT-4 leukemia; A549 NSCLC; SK-MEL-2 melanoma.
Common to all, as to experiment: NCI-60 cell line screen, 48 h

In PubChem BioAssay (NCI) one finds GI50 and TGI data, which are given here for 13 molecules.

Where “and” joins values, the source holds several entries; their conditions need not be identical. Identical values can stand only once.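 Compound exposure: 48 hours, 5 concentrations, 96-well plates. The concentration for 50% growth inhibition is given as GI50. TGI: total growth inhibition.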

On to `COc1cccc(-c2nn(-c3ccccc3)cc2-c2ccnc(NCCNC(=O)Nc3ccc(Cl)c(Cl)c3)c2)c1`, for which the GI50 was 2.59 µM in the assay on OVCAR-3 ovarian; 2.17 µM in the assay on HCT-116 colon; 1.37 µM with HOP-92 NSCLC; 2.18 µM in the assay on NCI-H522 lung; 2.7 µM in the assay on SW-620 colon; 2.43 µM with SF-268 CNS. For the same molecule, the GI50 is 2.07 µM with COLO 205 colon, 2.31 µM in the assay with MOLT-4 leukemia, 3.38 µM in the assay with A549 NSCLC and 2.09 µM in the assay with SK-MEL-2 melanoma. Moreover, the TGI with OVCAR-3 ovarian was 8.2 µM; in the assay with HCT-116 colon, 5.33 µM; in the assay on HOP-92 NSCLC it was 5.48 µM; in the assay with NCI-H522 lung it was 5.96 µM; in the assay on SW-620 colon it was 11.1 µM; in the assay with SF-268 CNS, 10.3 µM. The TGI in the assay with COLO 205 colon was found to be 4.44 µM; in the assay on MOLT-4 leukemia it was 7.11 µM; in the assay with A549 NSCLC, 12.5 µM; in the assay with SK-MEL-2 melanoma, 5.17 µM.
`NC(Cc1nn[nH]n1)C(=O)O` (stereo not given): the TGI in the assay on OVCAR-3 ovarian, in the assay on HCT-116 colon, in the assay with HOP-92 NSCLC, in the assay with NCI-H522 lung, in the assay on SW-620 colon and in the assay on SF-268 CNS was above 100 µM throughout. Moreover, the TGI in the assay with COLO 205 colon, in the assay on MOLT-4 leukemia, with A549 NSCLC and in the assay with SK-MEL-2 melanoma was above 100 µM in each case.
As for `O=c1c2ccccc2nc(-c2ccccc2)n1NCC1(O)OCC(O)C(O)C1O` (stereo not given), the TGI in the assay on OVCAR-3 ovarian, with HCT-116 colon, in the assay on HOP-92 NSCLC, in the assay with NCI-H522 lung, in the assay on SW-620 colon and in the assay with SF-268 CNS was above 100 µM in each case. In addition, the TGI in the assay with COLO 205 colon, with MOLT-4 leukemia, with A549 NSCLC and in the assay on SK-MEL-2 melanoma was above 100 µM throughout.
Take `COc1ccc2nc3ccc(OC)cc3c(SCCCN)c2c1`: the GI50 was 2.73 µM in the assay on OVCAR-3 ovarian; 3.21 µM in the assay with HCT-116 colon; 3.59 µM in the assay on HOP-92 NSCLC; 1.51 µM in the assay on NCI-H522 lung; 1.44 µM in the assay with SW-620 colon; 4.67 µM in the assay with SF-268 CNS. For the same molecule, the GI50 was 1.42 µM with COLO 205 colon, 2.2 µM in the assay on MOLT-4 leukemia, 12.9 µM with A549 NSCLC and 6.05 µM in the assay on SK-MEL-2 melanoma. Further, the TGI in the assay on OVCAR-3 ovarian was determined as 6.88 µM; in the assay with HCT-116 colon it was 12.6 µM; in the assay on HOP-92 NSCLC, 13.1 µM; in the assay on NCI-H522 lung it was 3.09 µM; with SW-620 colon, 3.15 µM; with SF-268 CNS, 14.5 µM. For the same molecule, the TGI was determined as 2.97 µM in the assay with COLO 205 colon, 6.34 µM with MOLT-4 leukemia, 38.5 µM in the assay with A549 NSCLC and 11.7 µM in the assay on SK-MEL-2 melanoma.
Turning to `c1ccc2c(c1)nc(NCCN1CCNCC1)c1c3ccccc3[nH]c21`, the GI50 is 0.413 µM in the assay with OVCAR-3 ovarian; 0.165 µM with HCT-116 colon; 0.43 µM in the assay on HOP-92 NSCLC; 0.22 µM in the assay with NCI-H522 lung; 0.25 µM in the assay on SW-620 colon; 0.39 µM with SF-268 CNS. For the same molecule, the GI50 is 0.346 µM in the assay on COLO 205 colon, 0.0983 µM in the assay on MOLT-4 leukemia, 0.206 µM in the assay on A549 NSCLC and 1.41 µM in the assay on SK-MEL-2 melanoma. The TGI in the assay on OVCAR-3 ovarian is 2.51 µM; in the assay with HCT-116 colon it was 1.42 µM; with HOP-92 NSCLC, 2.62 µM; with NCI-H522 lung, 1.07 µM; with SW-620 colon it was 2.54 µM; with SF-268 CNS, 2.01 µM. Further, the TGI was found to be 1.87 µM with COLO 205 colon, 0.887 µM in the assay on MOLT-4 leukemia, 1.21 µM in the assay on A549 NSCLC and 2.89 µM with SK-MEL-2 melanoma.
With `O=C1c2c(O)cccc2C(C(=O)CCCCC(=O)C2c3cccc(O)c3C(=O)c3c(O)cccc32)c2cccc(O)c21`, the GI50 in the assay on OVCAR-3 ovarian was 1.39 µM; in the assay with HCT-116 colon it was 1.93 µM; with HOP-92 NSCLC, 1.3 µM; in the assay on NCI-H522 lung it was 1.25 µM; in the assay on SW-620 colon, 1.73 µM; in the assay with SF-268 CNS, 2.25 µM. The GI50 in the assay with COLO 205 colon was 1.02 µM; with MOLT-4 leukemia it was 1.8 µM; in the assay with A549 NSCLC, 1.1 µM; in the assay on SK-MEL-2 melanoma, 1.24 µM. The TGI in the assay on OVCAR-3 ovarian was 1.3 µM and 2.53 µM; with HCT-116 colon it was 2.1 µM and 6.82 µM; in the assay on HOP-92 NSCLC it was 1.69 µM and 2.8 µM; with NCI-H522 lung, 1.07 µM and 2.92 µM; with SW-620 colon, 10.1 µM and 7.17 µM; in the assay on SF-268 CNS, 2.39 µM and 6.86 µM. Moreover, the TGI was 3.36 µM and 2.21 µM with COLO 205 colon; 5.42 µM and 9.97 µM in the assay on MOLT-4 leukemia; 1.06 µM and 2.43 µM in the assay on A549 NSCLC; 1.22 µM and 2.46 µM with SK-MEL-2 melanoma.
For `Oc1cccc(-c2nc3ccccc3s2)c1`, the TGI in the assay on OVCAR-3 ovarian is above 100 µM; with HCT-116 colon, above 100 µM; in the assay with HOP-92 NSCLC, above 100 µM; in the assay on NCI-H522 lung, 51 µM; in the assay with SW-620 colon, above 100 µM; in the assay on SF-268 CNS, 68.7 µM. Besides, the TGI in the assay with COLO 205 colon, with MOLT-4 leukemia, in the assay on A549 NSCLC and in the assay with SK-MEL-2 melanoma was above 100 µM each time.
Turning to `O=C(CCCCCCCCCCc1ccccc1)c1c(O)cccc1O`, the TGI in the assay on OVCAR-3 ovarian amounted to 63.1 µM; in the assay with HCT-116 colon it was 48.3 µM; in the assay on HOP-92 NSCLC it was 41.8 µM; in the assay with NCI-H522 lung it was 42.4 µM; in the assay on SW-620 colon, 34.7 µM; in the assay on SF-268 CNS, 57.8 µM. Moreover, the TGI in the assay with COLO 205 colon was determined as 56.5 µM; in the assay with MOLT-4 leukemia it was 61.8 µM; with A549 NSCLC, 76.1 µM; in the assay with SK-MEL-2 melanoma, 31.3 µM.
With `CC(C)c1ccc(/C=C(\NC(=O)c2ccccc2)c2nc3ccccc3[nH]2)cc1`, the TGI in the assay on OVCAR-3 ovarian was above 100 µM; in the assay on HCT-116 colon, above 100 µM; in the assay on HOP-92 NSCLC, above 100 µM; in the assay with NCI-H522 lung it was 89.5 µM; in the assay on SW-620 colon, above 100 µM; with SF-268 CNS, above 100 µM. The TGI with COLO 205 colon is above 100 µM; in the assay on MOLT-4 leukemia, 69.9 µM; with A549 NSCLC it was 82.5 µM; in the assay on SK-MEL-2 melanoma, 89.3 µM.
Consider `C[C@@H](NC(=O)Cc1cc(F)cc(F)c1)C(=O)N[C@@]1(C)N=C(c2ccccc2)c2ccccc2N(C)C1=O`, for which the GI50 in the assay with OVCAR-3 ovarian is 30 µM; in the assay with HCT-116 colon it was 32.2 µM; in the assay on HOP-92 NSCLC, 19.8 µM; with NCI-H522 lung, 69.2 µM; in the assay on SW-620 colon it was 94.4 µM; with SF-268 CNS, 30.9 µM. For the same molecule, the GI50 with COLO 205 colon is 47.2 µM; with MOLT-4 leukemia it was 11.7 µM; in the assay on A549 NSCLC, 66.1 µM; with SK-MEL-2 melanoma, above 100 µM. Besides, the TGI with OVCAR-3 ovarian is above 100 µM; in the assay on HCT-116 colon, above 100 µM; with HOP-92 NSCLC, above 67.7 µM; in the assay on NCI-H522 lung, above 100 µM; in the assay on SW-620 colon, above 100 µM; with SF-268 CNS, above 100 µM. The TGI in the assay with COLO 205 colon was above 100 µM; in the assay with MOLT-4 leukemia it was 50.1 µM; in the assay with A549 NSCLC it was above 100 µM; in the assay with SK-MEL-2 melanoma, above 100 µM.
As to `CCOC(=O)c1[nH]c2c(c1C)-c1[nH]c(=O)c(S(=O)(=O)c3ccccc3)cc1SC2`, the GI50 in the assay on OVCAR-3 ovarian is 31.6 µM; in the assay on HCT-116 colon, 36.1 µM; in the assay on HOP-92 NSCLC it was 0.504 µM; in the assay on NCI-H522 lung, 28.7 µM; in the assay on SW-620 colon it was 57.9 µM; with SF-268 CNS, 34.5 µM. Moreover, the GI50 in the assay on COLO 205 colon is 22.5 µM; in the assay with MOLT-4 leukemia, 15.7 µM; in the assay on A549 NSCLC, 41.3 µM; with SK-MEL-2 melanoma, 92.3 µM. The TGI in the assay with OVCAR-3 ovarian was above 100 µM; in the assay with HCT-116 colon, above 100 µM; in the assay with HOP-92 NSCLC, 61.1 µM; in the assay with NCI-H522 lung, above 100 µM; in the assay on SW-620 colon, above 100 µM; in the assay on SF-268 CNS it was above 100 µM. The TGI in the assay with COLO 205 colon was 46.4 µM; in the assay with MOLT-4 leukemia, above 100 µM; with A549 NSCLC it was above 100 µM; with SK-MEL-2 melanoma it was above 100 µM.
`CN1C(=O)c2cc(Cl)nc3c(NC(=O)c4cccc(Cl)c4)c(Cl)c(NC(=O)c4cccc(Cl)c4)c1c23`: the GI50 with OVCAR-3 ovarian is 1.92 µM; in the assay on HCT-116 colon, 1.31 µM; in the assay on HOP-92 NSCLC it was 1.71 µM; in the assay with NCI-H522 lung, 1.82 µM; in the assay with SW-620 colon, 1.78 µM; in the assay with SF-268 CNS, 1.83 µM. Also, the GI50 with COLO 205 colon was 1.94 µM; in the assay with MOLT-4 leukemia, 2.07 µM; in the assay on A549 NSCLC, 4.14 µM; in the assay on SK-MEL-2 melanoma, 2.19 µM. In addition, the TGI stood at 3.57 µM in the assay on OVCAR-3 ovarian; 2.69 µM in the assay on HCT-116 colon; 3.41 µM in the assay with HOP-92 NSCLC; 3.75 µM with NCI-H522 lung; 3.93 µM with SW-620 colon; 3.73 µM in the assay on SF-268 CNS. Also, the TGI worked out at 4.01 µM with COLO 205 colon, 5.21 µM with MOLT-4 leukemia, 14.8 µM with A549 NSCLC and 4.35 µM in the assay with SK-MEL-2 melanoma.
For `COc1cc2oc3ccccc3c(=O)c2cc1CSc1ccccc1N`, the TGI with OVCAR-3 ovarian was above 68.1 µM; with HCT-116 colon, above 100 µM; in the assay on HOP-92 NSCLC, above 100 µM; with NCI-H522 lung, 41.1 µM; in the assay on SW-620 colon it was above 100 µM; with SF-268 CNS, above 100 µM. For the same molecule, the TGI was above 95.6 µM in the assay on COLO 205 colon, 26.1 µM in the assay on MOLT-4 leukemia, above 100 µM with A549 NSCLC and above 77.6 µM in the assay with SK-MEL-2 melanoma.
